Results taken from ChEMBL document CHEMBL5523699, “Exploring novel pyrazole-nitroimidazole hybrids: Synthesis and antiprotozoal activity against the human pathogen trichomonas vaginalis” (Bioorg Med Chem, 2024).

Assays:
Trichomonas vaginalis [1] = experiment: Antiparasitic activity against Trichomonas vaginalis JT assessed as inhibition of parasite growth incubated for 24 hrs by flow cytometric analysis; format: functional, organism-based
Trichomonas vaginalis [2] = experiment: Antiparasitic activity against Trichomonas vaginalis JT assessed as inhibition of parasite growth incubated for 48 hrs by flow cytometric analysis; format: functional, organism-based
[3] = Cytotoxicity against human HeLa cells assessed as reduction in cell viability incubated for 24 hrs by MTT assay; format: toxicity, cell-based
[4] = Cytotoxicity against human HeLa cells assessed as reduction in cell viability incubated for 48 hrs by MTT assay; format: toxicity, cell-based
[5] = Selectivity index, ratio of CC50 for cytotoxicity against human […] cells incubated for 24 hrs to IC50 for antiparasitic activity against Trichomonas vaginalis JT assessed as inhibition of parasite growth incubated for 24 hrs; format: toxicity, cell-based; conditions: read-out: Ratio CC50/IC50
[6] = Selectivity index, ratio of CC50 for cytotoxicity against human […] cells incubated for 48 hrs to IC50 for antiparasitic activity against Trichomonas vaginalis JT assessed as inhibition of parasite growth incubated for 48 hrs; format: toxicity, cell-based; conditions: read-out: Ratio CC50/IC50
Trichomonas vaginalis [7] = experiment: Potency index, ratio of metronidazole IC50 to test compound IC50 for antiparasitic activity against Trichomonas vaginalis JT assessed as inhibition of parasite growth incubated for 48 hrs by flow cytometric analysis; format: functional
Trichomonas vaginalis [8] = experiment: Selectivity index, ratio of IC50 for antiparasitic activity against Trichomonas vaginalis JT assessed as inhibition of parasite growth incubated for 24 hrs to IC50 for antiparasitic activity against Trichomonas vaginalis JT assessed as inhibition of parasite growth incubated for 48 hrs; format: functional
Trichomonas vaginalis [9] = experiment: Selectivity index, ratio of IC50 for antiparasitic activity against Trichomonas vaginalis JT assessed as inhibition of parasite growth incubated for 48 hrs to IC50 for antiparasitic activity against Trichomonas vaginalis JT assessed as inhibition of parasite growth incubated for 24 hrs; format: functional

| Compound | IC50 (Trichomonas vaginalis [1]) [µM] | IC50 (Trichomonas vaginalis [2]) [µM] | CC50 at 24 h [3] [µM] | CC50 at 48 h [4] [µM] | selectivity ratio at 24 h [5] | selectivity ratio at 48 h [6] | Ratio IC50 (Trichomonas vaginalis [7]) | Ratio IC50 (Trichomonas vaginalis [8]) | Ratio IC50 (Trichomonas vaginalis [9]) |
| --- | --- | --- | --- | --- | --- | --- | --- | --- | --- |
| O=[N+]([O-])c1cn(CCO)cn1 | 19.9 | 40.6 | 120 | 212 | 6 | 5.22 | – | – | – |
| COc1ccc(-n2cc(C(=O)OCCn3cnc([N+](=O)[O-])c3)cn2)cc1 | 18.8 | 24.4 | 211 | 141 | 11.1 | 5.78 | – | – | – |
| O=C(OCCn1cnc([N+](=O)[O-])c1)c1cnn(-c2cccc(Cl)c2)c1 | 10.3 | 8 | 218 | 84.9 | 21 | 10.5 | – | – | – |
| O=C(OCCn1cnc([N+](=O)[O-])c1)c1cnn(-c2cccc(Br)c2)c1 | 5.2 | 2.1 | 148 | 111 | 28.1 | 53.8 | <=19.2 | ~2.5 | – |
| O=C(OCCn1cnc([N+](=O)[O-])c1)c1cnn(-c2cccc(F)c2)c1 | 18.2 | 18 | 185 | 100 | 10.1 | 5.58 | – | – | – |
| O=C(OCCn1cnc([N+](=O)[O-])c1)c1cnn(-c2ccc(F)cc2)c1 | 10.1 | 3.8 | 214 | 182 | 21 | 48.2 | <=19.2 | ~2.5 | – |
| O=C(OCCn1cnc([N+](=O)[O-])c1)c1cnn(-c2ccc(Cl)cc2)c1 | 4.8 | 10.3 | 195 | 177 | 40.3 | 17 | – | – | ~2 |
| O=C(OCCn1cnc([N+](=O)[O-])c1)c1cnn(-c2ccc(Br)cc2)c1 | 15 | 18.6 | 69.3 | 90.4 | 4.6 | 4.86 | – | – | – |
| O=C(OCCn1cnc([N+](=O)[O-])c1)c1cnn(-c2ccccc2)c1 | 7.5 | 12.6 | 236 | 98 | 31.4 | 7.7 | – | – | – |
| Cc1ncc([N+](=O)[O-])n1CCO [METRONIDAZOLE] | 4.9 | 39.7 | 666 | 286 | 136 | 7.19 | – | – | – |
| O=C(OCCn1cnc([N+](=O)[O-])c1)c1cnn(-c2cc(Cl)cc(Cl)c2)c1 | 13.8 | 4.4 | 266 | 164 | 19.2 | 37 | <=19.2 | – | – |
| O=C(OCCn1cnc([N+](=O)[O-])c1)c1cnn(-c2ccc(Cl)c(Cl)c2)c1 | 5.3 | 35.5 | 584 | 313 | 110 | 8.81 | – | – | – |
